From patent US20220411495A1, “POSITIVE ALLOSTERIC MODULATORS OF THE CALCIUM-SENSING RECEPTOR” (VIB VZW, priority 2019, published 2022)

Biological target: T1, CaSR 7-transmembrane domain allosteric binding site (Homo sapiens, UniProt P41180)
T1 sequence (P41180 20-1078): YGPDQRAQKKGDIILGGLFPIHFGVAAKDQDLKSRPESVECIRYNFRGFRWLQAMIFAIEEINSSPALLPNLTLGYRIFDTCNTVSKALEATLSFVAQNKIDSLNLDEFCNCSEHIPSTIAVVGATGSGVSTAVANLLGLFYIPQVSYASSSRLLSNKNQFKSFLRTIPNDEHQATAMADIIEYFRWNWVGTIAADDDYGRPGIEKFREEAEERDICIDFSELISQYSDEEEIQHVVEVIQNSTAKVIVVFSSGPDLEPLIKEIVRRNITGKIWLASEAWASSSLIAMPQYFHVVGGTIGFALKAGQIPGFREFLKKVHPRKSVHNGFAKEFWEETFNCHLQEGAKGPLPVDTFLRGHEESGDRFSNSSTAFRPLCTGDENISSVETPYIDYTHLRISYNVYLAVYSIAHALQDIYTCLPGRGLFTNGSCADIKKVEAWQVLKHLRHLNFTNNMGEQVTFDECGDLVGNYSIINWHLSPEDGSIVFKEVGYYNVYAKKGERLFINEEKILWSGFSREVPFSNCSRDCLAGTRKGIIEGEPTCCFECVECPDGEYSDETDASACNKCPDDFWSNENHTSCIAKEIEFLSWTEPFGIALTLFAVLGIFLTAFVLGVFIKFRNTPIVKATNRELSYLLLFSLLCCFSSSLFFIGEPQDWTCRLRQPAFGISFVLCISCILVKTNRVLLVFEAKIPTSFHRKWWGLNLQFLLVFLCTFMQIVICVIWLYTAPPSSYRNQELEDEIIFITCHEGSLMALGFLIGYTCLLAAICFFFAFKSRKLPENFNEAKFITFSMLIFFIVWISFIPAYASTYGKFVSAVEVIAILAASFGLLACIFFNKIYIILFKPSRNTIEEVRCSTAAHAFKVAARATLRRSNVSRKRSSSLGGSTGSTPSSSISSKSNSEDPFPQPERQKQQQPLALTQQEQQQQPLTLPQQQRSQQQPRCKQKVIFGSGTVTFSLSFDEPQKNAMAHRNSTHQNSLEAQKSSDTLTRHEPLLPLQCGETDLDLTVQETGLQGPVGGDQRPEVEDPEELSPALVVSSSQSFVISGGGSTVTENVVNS
Assay: [3H]evocalcet radioligand displacement
Description: For the seven different nanobodies with potencies in the 10 to 600 nM range, further characterization of their recognition site on the CaSR antigen was performed, since the identification of the nanobody binding-sites at the CaSR is key to understand their interaction and mode-of-action at a molecular and structural level, and will further aid in the development of second-generation nanobodies with enhanced pharmacological parameters. Nanobodies belonging to each family of the five different nanobody families are expected to interact with distinct regions of the CaSR.

## CC(C)(Cc1ccc2ccccc2c1)NC[C@@H](O)COc1cccc(Cl)c1C#N [NPS 2143]
  Displacement of [3H]evocalcet binding: did displace
